The values below come from patent US7371748B2, “Benzothiazole derivatives” (Hoffman-La Roche Inc., priority 2003, dated 2008).

Data set [1] deals with T1, human adenosine A2A receptor (Homo sapiens, UniProt P29274).
T1 construct: expressed in transfected cells; host or cells: CHO cells, Semliki Forest virus expression system; membrane preparation
As to the kind of experiment: [3H]-SCH-58261 binding assay, human adenosine A2A receptor. The note with it: human A2A receptor recombinantly expressed in CHO cell membranes, [3H]-SCH-58261 1 nM, Ki from IC50 by Cheng-Prussoff equation. Here is the method: Human Adenosine A2A Receptor
The human adenosine A2A receptor was recombinantly expressed in chinese hamster ovary (CHO) cells using the semliki forest virus expression system. Cells were harvested, washed twice by centrifugation, homogenized and again washed by centrifugation. The final washed membrane pellet was suspended in a Tris (50 mM) buffer containing 120 mM NaCl, 5 mM KCl, 2 mM CaCl2 and 10 mM MgCl2 (pH 7.4) (buffer A). The [^3H]-SCH-58261 (Dionisotti et al., […], Br J Pharmacol 121, 353; 1 nM) binding assay was carried out in 96-well plates in the presence of 2.5 μg of membrane protein, 0.5 mg of Ysi-poly-1-lysine SPA beads and 0.1 U adenosine deaminase in a final volume of 200 μl of buffer A. Non-specific binding was defined using xanthine amine congener (XAC; 2 μM). Compounds were tested at 10 concentrations from 10 μM-0.3 nM. All assays were conducted in duplicate and repeated at least two times. Assay plates were incubated for 1 hour at room temperature before centrifugation and then bound ligand determined using a Packard Topcount scintillation counter. IC50 values were calculated using a non-linear curve fitting program and Ki values calculated using the Cheng-Prussoff equation.

Setting [2] is: read-out: Ha2 (pKi) (converted).

SMILES strings stand for the structures. Where two headings read alike, the source gives them in different places.

T1 sequence (P29274 whole entry): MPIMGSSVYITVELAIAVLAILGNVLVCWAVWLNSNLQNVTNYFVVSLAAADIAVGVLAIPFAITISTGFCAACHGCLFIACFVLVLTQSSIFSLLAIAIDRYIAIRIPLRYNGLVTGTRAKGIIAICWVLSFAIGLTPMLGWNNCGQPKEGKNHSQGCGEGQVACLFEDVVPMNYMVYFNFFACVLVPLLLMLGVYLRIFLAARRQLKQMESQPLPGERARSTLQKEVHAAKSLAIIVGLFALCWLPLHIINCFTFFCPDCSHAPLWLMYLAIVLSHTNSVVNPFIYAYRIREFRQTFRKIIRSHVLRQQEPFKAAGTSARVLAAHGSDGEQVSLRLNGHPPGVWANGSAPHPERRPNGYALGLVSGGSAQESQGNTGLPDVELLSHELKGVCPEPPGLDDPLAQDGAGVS

In the case of `COc1ccc(C2CCOCC2)c2sc(NC(=O)N(C)C3CCN(N(C)C)CC3)nc12` [Example 53, 1-(1-Dimethylamino-piperidin-4-yl)-3-[4-methoxy-7-(tetrahydro-pyran-4-yl)-benzothiazol-2-yl]-1-methyl-urea], the melting point (commonly the temperature, or range, at which the solid turns liquid) fell in the range of 167 to 170 °C. On the same count and under the same terms, with `COc1ccc(C2CCOCC2)c2sc(NC(=O)CC3CCCO3)nc12` (centres unmarked) [Example 54, N-[4-Methoxy-7-(tetrahydro-pyran-4-yl)-benzothiazol-2-yl]-2-(tetrahydro-furan-2-yl)-acetamide] the figure was 170 to 174 °C. As for `COc1ccc(C2CCOCC2)c2sc(NC(=O)N(C)C3CC4CCC3O4)nc12` (single isomer, unassigned) [Example 56, (exo)-(−)-3-[4-Methoxy-7-(tetrahydro-pyran-4-yl]-benzothiazol-2-yl)-1-methyl-1-(7-oxa-bicyclo[2.2.1]hept-2-yl)-urea], the melting point is 155 to 190 °C. The Ki in data set [1] (setting [2]) was 3.16 nM. The compound `COc1ccc(C2CCOCC2)c2sc(NC(=O)N(C)C3CCN(C)CC3)nc12` [Example 20, 3-[4-Methoxy-7-(tetrahydro-pyran-4-yl)-benzothiazol-2-yl]-1-methyl-1-(1-methyl-piperidin-4-yl)-urea] displayed a melting point of 152 to 155 °C. Also, the Ki in data set [1] (setting [2]) was 2.51 nM.

As to `COc1ccc(C2COCCOC2)c2sc(NC(=O)c3ccc(CCl)cc3)nc12` [Example 39, 4-Chloromethyl-N-(7-[1,4]dioxepan-6-yl-4-methoxy-benzothiazol-2-yl)-benzamide], the Ki in data set [1] (setting [2]) is 1.58 nM. The compound `COc1ccc(C2CCOCC2)c2sc(NC(=O)N3CC4CCC3CC4)nc12` [Example 32, 2-Aza-bicyclo[2.2.2]octane-2-carboxylic acid [4-methoxy-7-(tetrahydro-pyran-4-yl)-benzothiazol-2-yl]-amide] registered a melting point of 237 to 239 °C. In addition, the Ki in data set [1] (setting [2]) is 2 nM. In the case of `CCC(=O)N(C)Cc1ccc(C(=O)Nc2nc3c(OC)ccc(C4COCCOC4)c3s2)cc1` [Example 44, N-(7-[1,4]Dioxepan-6-yl-4-methoxy-benzothiazol-2-yl)-4-[(methyl-propionyl-amino)-methyl]-benzamide], in data set [1] (setting [2]), the Ki is 2.51 nM.

`COc1ccc(C(=O)Nc2nc3c(OC)ccc(C4COCCOC4)c3s2)cc1` [Example 9, N-(7-[1,4]Dioxepan-6-yl-4-methoxy-benzothiazol-2-yl)-4-methoxy-benzamide]: the Ki in data set [1] (setting [2]) is 2 nM. In turn, `COc1ccc(C2CCOCC2)c2sc(NC(=O)N(C)C3CC4CCC3O4)nc12` (single isomer, unassigned) [Example 55, (exo)-(+)-3-[4-Methoxy-7-(tetrahydro-pyran-4-yl)-benzothiazol-2-yl]-1-methyl-1-(7-oxa-bicyclo[2.2.1]hept-2-yl)-urea] registered a melting point of 185 to 188 °C. Also, the Ki in data set [1] (setting [2]) is 1.26 nM. For the compound `COc1ccc(C2COCCOC2)c2sc(NC(=O)C3CCCCC3)nc12` [Example 11, Cydohexanecarboxylic acid (7-[1,4]dioxepan-6-yl-4-methoxy-benzothiazol-2-yl)-amide], in data set [1] (setting [2]), the Ki is 2.51 nM. `COc1ccc(C2CCOCC2)c2sc(NC(=O)N3C[C@@H]4C[C@H]3CO4)nc12` [Example 31, (1S,4S)-2-Oxa-5-aza-bicyclo[2.2.1]heptane-5-carboxylic acid [4-methoxy-7-(tetrahydro-pyran-4-yl)-benzothiazol-2-yl]-amide]: the melting point was 193 to 197 °C. The Ki in data set [1] (setting [2]) was 1.26 nM. On to `COc1ccc(C2COCCOC2)c2sc(NC(=O)c3ccnc(N4CCCC4)c3)nc12` [Example 46, N-(7-[1,4]Dioxepan-6-yl-4-methoxy-benzothiazol-2-yl)-2-pyrrolidin-1-yl-isonicotinamide], for which, in data set [1] (setting [2]), the Ki is 2.51 nM. As to `COc1ccc(C2CCOCC2)c2sc(NC(=O)N3CCC4(CC3)OCCO4)nc12` [Example 29, 1,4-Dioxa-8-aza-spiro[4.5]decane-8-carboxylic acid [4-methoxy-7-(tetrahydro-pyran-4-yl)-benzothiazol-2-yl]-amide], in data set [1] (Ha2 (pKi)), the Ki was 1.58 nM. Compound `COc1ccc(C2COCCOC2)c2sc(NC(=O)c3ccnc(CN4CCCC4)c3)nc12` [Example 47, N-(7-[1,4]Dioxepan-6-yl-4-methoxy-benzothiazol-2-yl)-2-pyrrolidin-1-ylmethyl-isonicotinamide] registered a melting point of 108 to 111 °C.

Consider `COc1ccc(C2COCCOC2)c2sc(NC(=O)c3cncn3C)nc12` [Example 14, 3-Methyl-3H-imidazole-4-carboxylic acid (7-[1,4]dioxepan-6-yl-4-methoxy-benzothiazol-2-yl)-amide], for which the Ki in data set [1] (setting [2]) was 1 nM. `COCCN(C)Cc1cc(C(=O)Nc2nc3c(OC)ccc(C4COCCOC4)c3s2)ccn1` [Example 48, N-(7-[1,4]Dioxepan-6-yl-4-methoxy-benzothiazol-2-yl)-2-{[(2-methoxy-ethyl)-methyl-amino]-methyl}-isonicotinamide] had a melting point of 100 to 107 °C. `COc1ccc(C2CCOCC2)c2sc(NC(=O)C[C@H]3CC[C@H](O)CC3)nc12` [Example 50, (trans)-2-(4-Hydroxy-cyclohexyl)-N-[4-methoxy-7-(tetrahydro-pyran-4-yl)-benzothiazol-2-yl]-acetamide] returned a melting point of 120 to 145 °C. In data set [1] (setting [2]), the Ki was 2.51 nM. Taken in the same sequence, the figures for `COCCNCc1cc(C(=O)Nc2nc3c(OC)ccc(C4CCOCC4)c3s2)ccn1` [Example 35, 2-[(2-Methoxy-ethylamino)-methyl]-N-[4-methoxy-7-(tetrahydro-pyran-4-yl)-benzothiazol-2-yl]-isonicotinamide] were 93 to 95 °C and 1.58 nM. Taken in the same sequence, the figures for `COc1ccc(C2CCOCC2)c2sc(NC(=O)N(C)C3CC4CCC3O4)nc12` (racemic) [Example 26, (rac)-(exo)-3-[4-Methoxy-7-(tetrahydro-pyran-4-yl)-benzothiazol-2-yl]-1-methyl-1-(7-oxa-bicyclo[2.2.1]hept-2-yl)-urea] were 197 to 200 °C and 1 nM. Regarding `COc1ccc(C2COCCOC2)c2sc(NC(=O)c3cnn(C)c3)nc12` [Example 43, 1-Methyl-1H-pyrazole-4-carboxylic acid (7-[1,4]dioxepan-6-yl-4-methoxy-benzothiazol-2-yl)-amide], the Ki in data set [1] (setting [2]) is 0.398 nM. For the compound `COc1ccc(C2CCOCC2)c2sc(NC(=O)N(C)C3CCOCC3)nc12` [Example 24, 3-[4-Methoxy-7-(tetrahydro-pyran-4-yl)-benzothiazol-2-yl]-1-methyl-1-(tetrahydro-pyran-4-yl)-urea], the melting point was 237 to 238 °C. The Ki in data set [1] (setting [2]) is 3.16 nM.

Compound `COc1ccc(C2CCOCC2)c2sc(NC(=O)[C@H]3CCCO3)nc12` [Example 51, (R)-Tetrahydro-furan-2-carboxylic acid [4-methoxy-7-(tetrahydro-pyran-4-yl)-benzothiazol-2-yl]-amide] yielded a melting point of 158 to 161 °C. Same read-out and setting: the value for `COc1ccc(C2CCOCC2)c2sc(NC(=O)N(C)CC3CCOC3)nc12` (centres unmarked) [Example 25, 3-[4-Methoxy-7-(tetrahydro-pyran-4-yl)-benzothiazol-2-yl]-1-methyl-1-(tetrahydro-furan-3-ylmethyl)-urea] was 185 to 186 °C.

Take `COc1ccc(C2COCCOC2)c2sc(NC(=O)c3ccc(F)cc3)nc12` [Example 10, N-(7-[1,4]Dioxepan-6-yl-4-methoxy-benzothiazol-2-yl)-4-fluoro-benzamide]: the Ki in data set [1] (setting [2]) is 1.26 nM. The compound `COc1ccc(C2CCOCC2)c2sc(NC(=O)c3ccnc(CN4CCOCC4)c3)nc12` [Example 34, N-[4-Methoxy-7-(tetrahydro-pyran-4-yl)-benzothiazol-2-yl]-2-morpholin-4-ylmethyl-isonicotinamide] returned a melting point of 199 to 201 °C. Besides, the Ki in data set [1] (setting [2]) is 2 nM. The compound `COc1ccc(C2CCOCC2)c2sc(NC(=O)N3CCC(C)(O)CC3)nc12` [Example 30, 4-Hydroxy-4-methyl-piperidine-1-carboxylic acid [4-methoxy-7-(tetrahydro-pyran-4-yl)-benzothiazol-2-yl]-amide] had a melting point of 90 to 95 °C. For the same compound, the Ki in data set [1] (setting [2]) was 1.26 nM. On to `COc1ccc(C2CCOCC2)c2sc(NC(=O)N(C)[C@H]3CC[C@@](C)(O)CC3)nc12` [Example 23, 1-(4-cis-Hydroxy-4-methyl-cyclohexyl)-3-[4-methoxy-7-(tetrahydro-pyran-4-yl)-benzothiazol-2-yl]-1-methyl-urea], for which the melting point lay in the range of 211 to 213 °C. Besides, the Ki in data set [1] (setting [2]) is 2 nM. For the compound `COc1ccc(C2COCCOC2)c2sc(NC(=O)c3ccc(C)s3)nc12` [Example 8, 5-Methyl-thiophene-2-carboxylic acid (7-[1,4]dioxepan-6-yl-4-methoxy-benzothiazol-2-yl)-amide], the Ki in data set [1] (setting [2]) is 1 nM. For `COc1ccc(C2COCCOC2)c2sc(NC(=O)c3ccncc3)nc12` [Example 15, N-(7-[1,4]Dioxepan-6-yl-4-methoxy-benzothiazol-2-yl)-isonicotinamide], the Ki in data set [1] (setting [2]) is 2 nM.
